The molecules below were run on LOLRI (assay: A. Herbicidal pre-emergence action on harmful plants (Tables A)). Details: application rate 80 g/ha; visual grading after ca. 3 weeks vs untreated controls; 100% = plants have died off, 0% = as control plants.
Type: in vivo, Lolium rigidum
Summary of the method: (§1)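 Greenhouse pre-emergence test: compound applied to the soil surface at 1280 g/ha or below, and herbicidal effect rated visually at ca. 3 weeks on a 0–100% scale against untreated plants.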
In the case of `COCc1nn(C)cc1C(=O)N1CCCC1Cc1ccccc1F` (racemic) [Example I-002], the “pre-emergence activity against LOLRI” value is reported as 90%. `CNC(=O)n1cc(C(=O)N2CCCC2Cc2ccccc2F)c(COC)n1` (racemic) [Example I-051] was tested, and the “pre-emergence activity against LOLRI” value was 100%.

Same assay, conditions: application rate 320 g/ha; visual grading after ca. 3 weeks vs untreated controls; 100% = plants have died off, 0% = as control plants
`COCc1nn(C)cc1C(=O)N1CCCC1Cc1ccccc1F` (racemic) [Example I-002] was tested, and the “pre-emergence activity against LOLRI” value was 90%. `CNC(=O)n1cc(C(=O)N2CCCC2Cc2ccccc2F)c(COC)n1` (racemic) [Example I-051] was tested, and the “pre-emergence activity against LOLRI” value was 100%.

Same assay, conditions: application rate 1280 g/ha; visual grading after ca. 3 weeks vs untreated controls; 100% = plants have died off, 0% = as control plants
With `COCc1nn(C)cc1C(=O)N1CCCC1Cc1ccccc1F` (racemic) [Example I-002] the “pre-emergence activity against LOLRI” value was 100%. For `CNC(=O)n1cc(C(=O)N2CCCC2Cc2ccccc2F)c(COC)n1` (racemic) [Example I-051], the “pre-emergence activity against LOLRI” value was 100%.

What follows are molecules tested on SETVI in the same assay as above. Details: application rate 320 g/ha; visual grading after ca. 3 weeks vs untreated controls; 100% = plants have died off, 0% = as control plants.
Type: in vivo, Setaria viridis
Summary of the method: as §1
In the case of `COCc1nn(C)cc1C(=O)N1CCCC1Cc1ccccc1F` (racemic) [Example I-002], the “pre-emergence activity against SETVI” value is reported as 90%. For `CNC(=O)n1cc(C(=O)N2CCCC2Cc2ccccc2F)c(COC)n1` (racemic) [Example I-051], the “pre-emergence activity against SETVI” value was 90%.

Same assay, conditions: application rate 1280 g/ha; visual grading after ca. 3 weeks vs untreated controls; 100% = plants have died off, 0% = as control plants
With `COCc1nn(C)cc1C(=O)N1CCCC1Cc1ccccc1F` (racemic) [Example I-002] the “pre-emergence activity against SETVI” value was 90%. In the case of `CNC(=O)n1cc(C(=O)N2CCCC2Cc2ccccc2F)c(COC)n1` (racemic) [Example I-051], the “pre-emergence activity against SETVI” value is reported as 90%.

Each molecule was assayed on ALOMY in the same assay as above. Details: application rate 320 g/ha; Table A9b.
Type: in vivo, Alopecurus myosuroides
Summary of the method: as §1
`CNC(=O)n1cc(C(=O)N2CCCC2Cc2ccccc2F)c(COC)n1` (racemic) [Example I-051] was tested, and the “pre-emergence activity against ALOMY” value was 90%.

Same assay, conditions: application rate 1280 g/ha; Table A9a
With `CNC(=O)n1cc(C(=O)N2CCCC2Cc2ccccc2F)c(COC)n1` (racemic) [Example I-051] the “pre-emergence activity against ALOMY” value was 90%.

These molecules were tested on ECHCG (assay: B. Herbicidal post-emergence action on harmful plants (Tables B)). Details: application rate 1280 g/ha; Table B2a.
Type: in vivo, Echinochloa crus-galli
Summary of the method: (§2)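 Activity was scored visually as % damage (100% = dead, 0% = like untreated) about 3 weeks after treatment. Plants at the one-leaf stage, 2-3 weeks old, were sprayed with WP/EC formulations plus 0.5% additive (600 L/ha water, up to 1280 g/ha). Plants were grown in sandy loam in a greenhouse.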
For `COCc1nn(C)cc1C(=O)N1CCCC1Cc1ccccc1F` (racemic) [Example I-002], the “post-emergence activity against ECHCG” value was 90%. `CNC(=O)n1cc(C(=O)N2CCCC2Cc2ccccc2F)c(COC)n1` (racemic) [Example I-051] was tested, and the “post-emergence activity against ECHCG” value was 90%.

What follows are molecules tested on POAAN in the same assay as above. Details: application rate 1280 g/ha; Table B7a.
Type: in vivo, Poa annua
Summary of the method: as §2
`COCc1nn(C)cc1C(=O)N1CCCC1Cc1ccccc1F` (racemic) [Example I-002] was tested, and the “post-emergence activity against POAAN” value was 90%. With `CNC(=O)n1cc(C(=O)N2CCCC2Cc2ccccc2F)c(COC)n1` (racemic) [Example I-051] the “post-emergence activity against POAAN” value was 90%.

What follows are molecules tested on ALOMY (assay: C. Herbicidal pre-emergence action, weed and crop plants (Tables C)). Details: application rate 80 g/ha; Table C2b.
Type: in vivo, Alopecurus myosuroides
From the text: (§3) Seeds of mono- and dicotyledonous weed plants and crop plants were sown, in plastic or organic planting pots, in sandy loam and covered with soil. The compounds according to the invention, formulated in the form of wettable powders (WP) or as emulsifiable concentrates (EC), were applied to the surface of the covering soil as aqueous suspension or emulsion, with the addition of 0.5% of an additive, at an application rate of 6001 of water/ha (converted). Following treatment, the pots were placed in a greenhouse and kept under optimum growth conditions for the test plants. The visual grading of the damage to the test plants was carried out after ca. 3 weeks in comparison to untreated controls (herbicidal effect in percent (%): 100% effect = plants have died off, 0% effect = as control plants). Tables C1 to C12 below show the effects of selected compounds of the general formula (I) according to table 1 on various harmful plants and an application rate corresponding to 320 g/ha or below obtained by the experimental procedure mentioned above. Table C1: pre-emergence activity at 320g/ha against KCHSC in %
In the case of `CNC(=O)n1cc(C(=O)N2CCCC2Cc2ccccc2F)c(COC)n1` (racemic) [Example I-051], the “pre-emergence activity against ALOMY” value is reported as 80%.

Same assay, conditions: application rate 320 g/ha; Table C2a
`COCc1nn(C)cc1C(=O)N1CCCC1Cc1ccccc1F` (racemic) [Example I-002] was tested, and the “pre-emergence activity against ALOMY” value was 90%. For `CNC(=O)n1cc(C(=O)N2CCCC2Cc2ccccc2F)c(COC)n1` (racemic) [Example I-051], the “pre-emergence activity against ALOMY” value was 90%.

These molecules were tested on MATIN in the same assay as above. Details: application rate 320 g/ha; Table C8.
Type: in vivo, Matricaria inodora
From the text: as §3
`COCc1nn(C)cc1C(=O)N1CCCC1Cc1ccccc1F` (racemic) [Example I-002] was tested, and the “pre-emergence activity against MATIN” value was 80%.

The molecules below were run on VIOTR in the same assay as above. Details: application rate 80 g/ha; Table C12b.
Type: in vivo, Viola tricolor
Summary of the method: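 Seeds were sown in sandy loam and covered with soil. WP or EC formulations were sprayed onto the soil surface as aqueous suspension or emulsion with 0.5% additive, at rates of 320 g/ha or below. Plants were kept in a greenhouse, and damage was scored visually after about 3 weeks as % effect versus untreated controls (100% = dead, 0% = like control).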
In the case of `CNC(=O)n1cc(C(=O)N2CCCC2Cc2ccccc2F)c(COC)n1` (racemic) [Example I-051], the “pre-emergence activity against VIOTR” value is reported as 80%.

Same assay, conditions: application rate 320 g/ha; Table C12a
In the case of `COCc1nn(C)cc1C(=O)N1CCCC1Cc1ccccc1F` (racemic) [Example I-002], the “pre-emergence activity against VIOTR” value is reported as 80%. For `CNC(=O)n1cc(C(=O)N2CCCC2Cc2ccccc2F)c(COC)n1` (racemic) [Example I-051], the “pre-emergence activity against VIOTR” value was 80%.

The molecules below were run on BRSNW (assay: F. Post-emergence effects on crop plants (Tables F)). Details: application rate 80 g/ha, crop plant.
Type: in vivo, Brassica napus
Summary of the method: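 Plants were grown in sandy loam in a greenhouse and sprayed post-emergence at the single-leaf stage, 2–3 weeks after sowing. Visual damage was scored after ca. 3 weeks against untreated controls (0% = as control, 100% = dead).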
`COCc1nn(C)cc1C(=O)N1CCCC1Cc1ccccc1F` (racemic) [Example I-002] was tested, and the “post-emergence activity against BRSNW in %” value was 10%.

Same assay, conditions: application rate 320 g/ha, crop plant
For `CNC(=O)n1cc(C(=O)N2CCCC2Cc2ccccc2F)c(COC)n1` (racemic) [Example I-051], the “post-emergence activity against BRSNW in %” value was 20%.
